The structures appear in SMILES notation.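 96-well plates; 48 h exposure; 5 concentrations. Endpoints by linear interpolation between flanking doses. Not reached: highest tested concentration assigned. GI50 = concentration required for 50% inhibition of growth. The concentration for full growth arrest is given as TGI.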

Among the test systems are CAKI-1 renal; DMS 273 small cell lung; HCC-2998 colon; HL-60(TB) leukemia; MALME-3M melanoma; MCF7 breast; NCI/ADR-RES ovarian; OVCAR-3 ovarian; SF-539 CNS; SNB-78 CNS; LOX IMVI melanoma; SW-620 colon; TK-10 renal.
What all share (assay): NCI-60 cell line screen, 48 h

In the case of `COc1cc(C2c3cc4c(cc3[C@@H](Nc3cnc5ccccc5c3)C3COC(=O)[C@H]23)OCO4)cc(OC)c1O` (stereo partly specified), the TGI in the test with CAKI-1 renal was 1.78 µM; with DMS 273 small cell lung it was 1.34 µM; in the test on HCC-2998 colon, 2.24 µM; in the test with HL-60(TB) leukemia, 0.377 µM; in the test on MALME-3M melanoma, 2.43 µM; in the test with MCF7 breast, more than 31.7 µM. Further, the TGI in the test on NCI/ADR-RES ovarian was 7.93 µM; in the test with OVCAR-3 ovarian, 3.9 µM; in the test on SF-539 CNS, 0.82 µM; in the test with SNB-78 CNS it was more than 100 µM.
Regarding `O=C1Sc2sc(=S)sc2SC1c1ccccc1` (stereo unspecified), the TGI in the test on CAKI-1 renal was more than 100 µM; with DMS 273 small cell lung, more than 100 µM; in the test with HCC-2998 colon it was more than 100 µM; with HL-60(TB) leukemia, more than 31.6 µM; with LOX IMVI melanoma, more than 82.6 µM; in the test with MALME-3M melanoma it was more than 83.5 µM. Moreover, the TGI is more than 100 µM in the test on MCF7 breast; more than 100 µM with NCI/ADR-RES ovarian; more than 31.6 µM in the test with OVCAR-3 ovarian; more than 100 µM with SF-539 CNS; more than 75.8 µM in the test with SNB-78 CNS; 39.3 µM in the test on SW-620 colon.
For the compound `C=CCn1c(C)nc2cc(Nc3nc(N4CCCC4)nc4nc[nH]c34)ccc21`, the GI50 in the test with CAKI-1 renal, in the test with HCC-2998 colon, with HL-60(TB) leukemia, with LOX IMVI melanoma and with NCI/ADR-RES ovarian was more than 100 µM throughout. Moreover, the TGI in the test on CAKI-1 renal, with HCC-2998 colon, in the test with HL-60(TB) leukemia, in the test with LOX IMVI melanoma and in the test with NCI/ADR-RES ovarian was more than 100 µM in each case.
Take `C=C1C(=O)OC2/C=C(CO)/C=C\C3OC3(C)CC(OC(=O)/C(C)=C/COC(C)=O)C12` (stereo unspecified): the TGI was 10.9 µM in the test on CAKI-1 renal; 4.3 µM in the test on DMS 273 small cell lung; 28.8 µM in the test on HCC-2998 colon; 1.48 µM with HL-60(TB) leukemia; 3.05 µM in the test with LOX IMVI melanoma; 3.38 µM with MALME-3M melanoma. The TGI came out at 16.4 µM in the test with MCF7 breast; 15.8 µM in the test on NCI/ADR-RES ovarian; 6.68 µM in the test on OVCAR-3 ovarian; 4.39 µM in the test with SF-539 CNS; 23.4 µM in the test on SNB-78 CNS; 3.24 µM in the test on SW-620 colon. In the test on TK-10 renal, this compound returned a TGI of 14 µM.
`Nc1nc2cc(COc3ccc(C(=O)O)cc3)ccc2nc1-c1ccccc1`: the TGI in the test with CAKI-1 renal, with HCC-2998 colon, in the test on HL-60(TB) leukemia, in the test on LOX IMVI melanoma, with MCF7 breast and in the test on OVCAR-3 ovarian was more than 10 µM each time. Further, the TGI with SF-539 CNS, with SW-620 colon and in the test with TK-10 renal was more than 10 µM each time.
As for `Cc1c2cnccc2c(C)c2c1c1ccccc1n2CCCCCCCl`, the TGI with CAKI-1 renal is more than 50 µM; with DMS 273 small cell lung, more than 50 µM; in the test with HCC-2998 colon, more than 50 µM; in the test on HL-60(TB) leukemia, 40.6 µM; in the test with LOX IMVI melanoma it was more than 50 µM; in the test on MALME-3M melanoma, more than 50 µM. The TGI with MCF7 breast is more than 50 µM; in the test with NCI/ADR-RES ovarian it was more than 50 µM; in the test on OVCAR-3 ovarian it was more than 50 µM; in the test on SF-539 CNS it was more than 50 µM; in the test on SNB-78 CNS, 49.8 µM; with SW-620 colon, more than 50 µM.
For `C=C1C(=O)OC2/C=C(\CO)C3OC3C3OC3(C)CC(OC(=O)/C(=C/C)COC(C)=O)C12` (stereo unspecified), the TGI was 4.67 µM in the test with CAKI-1 renal; 10.5 µM in the test on DMS 273 small cell lung; 37.1 µM with HCC-2998 colon; 3.24 µM with LOX IMVI melanoma; 3.09 µM in the test on MALME-3M melanoma; 20.1 µM in the test with MCF7 breast. The TGI with NCI/ADR-RES ovarian was determined as 41.8 µM; in the test with OVCAR-3 ovarian, 11.4 µM; with SF-539 CNS it was 7.38 µM; with SNB-78 CNS, 13.4 µM; with SW-620 colon, 2.8 µM; in the test with TK-10 renal, 11.1 µM.
Take `O=C(N/N=C/c1cc(Cl)cc(Cl)c1[O-])c1ccccc1O.O=C(N/N=C/c1cc(Cl)cc(Cl)c1[O-])c1ccccc1O.[Mn+2]`: the TGI in the test on CAKI-1 renal came to 4.33 µM; in the test with HCC-2998 colon, 13.5 µM; with HL-60(TB) leukemia it was 0.404 µM; with LOX IMVI melanoma it was 14.1 µM; with MALME-3M melanoma it was 7.79 µM; with OVCAR-3 ovarian, 1.02 µM. Moreover, the TGI in the test on SF-539 CNS was 4.51 µM; in the test with SW-620 colon, 17.7 µM; in the test with TK-10 renal it was 16.2 µM. The GI50 was 1.34 µM in the test with MALME-3M melanoma and 0.459 µM in the test on SF-539 CNS.
Take `CS(C)(=O)=Nn1c(=O)n2n(c1=O)[C@H]1CC[C@@H]2C1`: the TGI in the test with CAKI-1 renal, in the test on HL-60(TB) leukemia, with LOX IMVI melanoma, in the test on MALME-3M melanoma, with MCF7 breast and in the test on NCI/ADR-RES ovarian was more than 100 µM throughout. In addition, the TGI in the test on OVCAR-3 ovarian, in the test on SF-539 CNS, in the test on SW-620 colon and in the test with TK-10 renal was more than 100 µM in each case.
In the case of `CSc1nc2c(ncn2C2OC(CO)C(O)C(O)C2O)c(=O)n1C` (stereo unspecified), the TGI in the test with DMS 273 small cell lung, in the test with HCC-2998 colon, in the test on HL-60(TB) leukemia, in the test with LOX IMVI melanoma, with MALME-3M melanoma and in the test on MCF7 breast was more than 100 µM each time. For the same compound, the TGI in the test on NCI/ADR-RES ovarian, with OVCAR-3 ovarian, with SF-539 CNS, with SNB-78 CNS and in the test on SW-620 colon was more than 100 µM throughout.
Regarding `O=C(O)C(C1NCCS1)N1C(=O)c2ccccc2C1=O` (stereo unspecified), the TGI with CAKI-1 renal, in the test with HL-60(TB) leukemia, in the test with LOX IMVI melanoma, in the test with MALME-3M melanoma, in the test with MCF7 breast and in the test with NCI/ADR-RES ovarian was more than 100 µM throughout. The TGI in the test with OVCAR-3 ovarian, with SF-539 CNS, in the test with SW-620 colon and with TK-10 renal was more than 100 µM throughout.
Take `COc1ccc2[nH]c(=O)cc(C)c2c1[N+](=O)[O-]`: the TGI in the test on CAKI-1 renal, with DMS 273 small cell lung, in the test on HCC-2998 colon, in the test on HL-60(TB) leukemia, in the test on LOX IMVI melanoma and with MALME-3M melanoma was more than 100 µM throughout. The TGI in the test with OVCAR-3 ovarian, with SF-539 CNS, in the test with SNB-78 CNS, in the test with SW-620 colon and with TK-10 renal was more than 100 µM in each case.

The record behind these values is PubChem BioAssay (NCI).
